For the assay, the system named is recombinant Arabidopsis thaliana. The assay can be described thus: Flowering induction in recombinant Arabidopsis thaliana. As to conditions: Arabidopsis with vector (e); 50 μM CuSO4 medium for six hours; observed five days after treatment; compared to non-inducible group. The assay is classed as in vivo. The protocol:
The vector (e) prepared in Example 1 was introduced into Agrobacterium (Agrobacterium tumefaciens strain C58C1). The resulting Agrobacterium was cultured in a LB agar medium (0.5% yeast extract, 1.0% bactotrypton, 0.5% saline, 1% agar) containing 50 mg/L kanamycin, 100 mg/L ampicillin, and 100 mg/L rifampicin, and a drug-resistant colony was selected to obtain recombinant Agrobacterium. Arabidopsis (Arabidopsis thaliana ecotype Columbia) was infected by the obtained recombinant Agrobacterium according to the method described in Model Plant Laboratory Manual (edited by Iwabuchi Masaki et al, 2000, Springer-Verlag Tokyo Co., Ltd., ISBN 4-431-70881-2 C3045) to introduce genes. After T1 seeds collected from the Arabidopsis subjected to gene introduction, the seeds were plated and grown on a modified MS agar medium (MS inorganic salts, B5 vitamin, 1% sucrose, 0.8% agar) containing 20 mg/L of Benlate, 200 mg/L of Claforan, and 25 mg/L kanamycin to select a plant individual resistant to kanamycin. The selected plant individual was transplanted to a pot in which culture soil was previously placed, and grown in an artificial weather chamber to obtain T2 seeds. […]

Regarding `O=S(=O)([O-])[O-].[Cu+2]` [CuSO4], the flowering time result is “flowering was induced earlier”.

For the origin of these results see patent US20110257013A1, “METHOD FOR CONTROLLING FLOWERING TIME OF PLANT” (SUMITOMO CHEMICAL COMPANY, LIMITED, priority 2008, published 2011).
